In ChEMBL document CHEMBL1201862, “PubChem BioAssay data set” (2004):
Calls of active or inactive are those of the source.

Legend:
[1] = target: Disintegrin and metalloproteinase domain-containing protein 17 (Homo sapiens, UniProt P78536); assay: exosite inhibitors of ADAM17, dose response, biochemical (AID 743260)
[2] = inhibition of ADAM10 peptide cleavage – biochemical, FRET peptide substrate, recombinant human ADAM10, selectivity assay for ADAM17 exosite inhibitor project, dose response (AID 743259);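 further: ADAM10 enzyme cleaving a FRET peptide substrate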
[3] = target: T1, Small ubiquitin-related modifier 1 (Homo sapiens, UniProt P63165); assay: SUMO1 protein-protein binding blockers, potency – biochemical, FRET, dose response (AID 624383); format: functional; settings: read-out: IC50_Mean
[4] = target: T2, Sentrin-specific protease 8 (Homo sapiens, UniProt Q96LD8); format: functional
T2 sequence (Q96LD8 whole entry): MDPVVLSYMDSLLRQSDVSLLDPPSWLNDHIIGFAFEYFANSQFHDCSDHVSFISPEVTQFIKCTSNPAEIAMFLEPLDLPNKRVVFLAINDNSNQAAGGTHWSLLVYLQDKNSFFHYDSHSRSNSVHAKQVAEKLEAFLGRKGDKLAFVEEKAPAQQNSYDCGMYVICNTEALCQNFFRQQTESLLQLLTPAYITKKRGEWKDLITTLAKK

[5] = target: T1, Small ubiquitin-related modifier 1; assay: SUMO1 protein interaction blockers, potency – biochemical, fluorescence polarization, uHTS hits, dose response (AID 624382); format: functional; settings: read-out: IC50_Mean
Fatty acid synthase [6] = target: T3, Fatty acid synthase (Homo sapiens, UniProt P49327); assay: inhibition of human FAS-TE enzyme activity – biochemical, endpoint fluorescence intensity, uHTS hits, dose response (AID 624327); format: functional;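 further: fluorescence from hydrolysis of an O-methyl fluorescein acyl ester substrate by the enzyme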
Nonstructural protein 1 = Nonstructural protein 1 (Influenza A virus, UniProt Q194T2); format: functional, Influenza A virus (A/California/07/2009(H1N1))
Genome polyprotein = Genome polyprotein (dengue virus type 2, UniProt P29990); assay: flavivirus cap methylation enzyme inhibition – biochemical, confirmation dose response, primary screen (AID 588689); format: functional
[7] = target: T4, Rac GTPase-activating protein 1 (Homo sapiens, UniProt Q9H0H5); assay: blockers of MgcRacGAP-driven Rac1 GTP hydrolysis – biochemical, ADP Hunter fluorescence, primary and confirmatory, confirmation (AID 624330); format: functional
T4 sequence (Q9H0H5 whole entry): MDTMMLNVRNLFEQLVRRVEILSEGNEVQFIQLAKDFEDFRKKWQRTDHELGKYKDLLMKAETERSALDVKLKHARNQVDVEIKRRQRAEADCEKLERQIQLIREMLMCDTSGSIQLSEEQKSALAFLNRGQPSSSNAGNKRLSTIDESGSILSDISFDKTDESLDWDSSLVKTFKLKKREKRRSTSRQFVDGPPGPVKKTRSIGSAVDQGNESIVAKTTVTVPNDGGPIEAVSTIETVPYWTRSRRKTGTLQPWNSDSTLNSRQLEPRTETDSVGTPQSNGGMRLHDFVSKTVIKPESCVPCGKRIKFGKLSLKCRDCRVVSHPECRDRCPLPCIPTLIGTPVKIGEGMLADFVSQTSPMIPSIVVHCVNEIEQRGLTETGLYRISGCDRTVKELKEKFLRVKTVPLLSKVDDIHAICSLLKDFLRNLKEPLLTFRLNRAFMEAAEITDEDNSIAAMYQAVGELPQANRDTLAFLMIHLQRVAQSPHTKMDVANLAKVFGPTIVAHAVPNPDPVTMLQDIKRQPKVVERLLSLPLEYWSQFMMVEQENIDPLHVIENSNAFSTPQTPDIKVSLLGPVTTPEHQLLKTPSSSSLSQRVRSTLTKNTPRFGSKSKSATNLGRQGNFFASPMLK

[8] = target: T5, Small ubiquitin-related modifier 2 (Homo sapiens, UniProt P61956); assay: disruption of SUMO2 interaction with SIM peptide – biochemical, fluorescence polarization, uHTS hits, selectivity assay for SUMO1 interaction inhibitor project, dose response (AID 624385); format: functional; settings: read-out: IC50_Mean
[9] = target: T6, Histone-lysine N-methyltransferase NSD2 (Homo sapiens, UniProt O96028); format: biochemical
T6 sequence (O96028 whole entry): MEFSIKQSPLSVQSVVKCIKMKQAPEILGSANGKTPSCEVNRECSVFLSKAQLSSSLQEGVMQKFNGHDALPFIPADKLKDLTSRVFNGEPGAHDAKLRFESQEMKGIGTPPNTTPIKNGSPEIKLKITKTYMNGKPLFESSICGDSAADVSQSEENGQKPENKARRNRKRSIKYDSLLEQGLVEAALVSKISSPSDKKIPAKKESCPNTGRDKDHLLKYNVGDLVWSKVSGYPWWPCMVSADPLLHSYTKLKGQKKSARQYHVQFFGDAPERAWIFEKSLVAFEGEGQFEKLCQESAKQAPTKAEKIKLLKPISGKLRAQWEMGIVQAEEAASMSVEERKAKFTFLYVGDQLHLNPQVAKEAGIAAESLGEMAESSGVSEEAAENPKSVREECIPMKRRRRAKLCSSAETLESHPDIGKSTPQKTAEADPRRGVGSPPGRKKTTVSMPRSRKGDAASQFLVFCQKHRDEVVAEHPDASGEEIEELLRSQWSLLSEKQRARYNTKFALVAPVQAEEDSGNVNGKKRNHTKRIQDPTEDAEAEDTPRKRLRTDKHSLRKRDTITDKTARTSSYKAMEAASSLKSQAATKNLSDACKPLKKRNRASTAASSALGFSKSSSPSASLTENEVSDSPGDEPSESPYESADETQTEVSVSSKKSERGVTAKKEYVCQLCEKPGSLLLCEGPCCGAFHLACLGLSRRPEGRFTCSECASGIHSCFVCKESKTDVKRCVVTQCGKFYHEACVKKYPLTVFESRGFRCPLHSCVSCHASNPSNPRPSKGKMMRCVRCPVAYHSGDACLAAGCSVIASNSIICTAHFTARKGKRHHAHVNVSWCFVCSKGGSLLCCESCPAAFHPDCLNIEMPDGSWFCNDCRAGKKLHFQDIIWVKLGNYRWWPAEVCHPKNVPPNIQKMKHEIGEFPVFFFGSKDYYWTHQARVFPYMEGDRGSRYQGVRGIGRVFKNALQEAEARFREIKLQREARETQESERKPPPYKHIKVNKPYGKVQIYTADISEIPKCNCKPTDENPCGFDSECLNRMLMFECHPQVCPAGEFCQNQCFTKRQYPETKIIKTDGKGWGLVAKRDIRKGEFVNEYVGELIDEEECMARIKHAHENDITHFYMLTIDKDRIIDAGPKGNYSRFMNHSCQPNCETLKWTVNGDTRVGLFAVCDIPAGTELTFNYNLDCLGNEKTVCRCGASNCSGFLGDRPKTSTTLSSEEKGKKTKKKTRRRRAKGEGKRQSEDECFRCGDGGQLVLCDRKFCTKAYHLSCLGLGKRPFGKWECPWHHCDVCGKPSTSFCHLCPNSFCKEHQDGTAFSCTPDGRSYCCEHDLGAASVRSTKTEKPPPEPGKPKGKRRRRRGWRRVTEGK

[10] = target: T5, Small ubiquitin-related modifier 2; assay: SUMO2 binding disruption by SUMO1 hits – biochemical, FRET, human SUMO2, uHTS hits, selectivity assay for SUMO1 interaction inhibitor project, dose response (AID 624384); format: functional; settings: read-out: IC50_Mean
[11] = target: Matrix metalloproteinase-14 (Homo sapiens, UniProt P50281); assay: Dose Response confirmation of uHTS hits for a small molecule inhibitors of MT1-MMP activation in a fluorescence assay set 1.; format: functional
Fatty acid synthase [12] = target: T3, Fatty acid synthase; assay: inhibition of human FAS-TE enzyme activity – biochemical, kinetic fluorescence intensity, dose response (AID 624326); format: functional;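 further: rate of fluorescence rise from hydrolysis of a fluorogenic O-methyl fluorescein ester substrate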
ORF 73 = ORF 73 (Human herpesvirus 8, UniProt O40947); assay: KSHV LANA DNA-binding disruption – biochemical, fluorescence polarization, cherry-picked samples, dose response (AID 504725); design: species or system Human gammaherpesvirus 8;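 further: fluorescence polarization of a labeled DNA duplex reporting LANA DNA binding; potency is for inhibitors that block LANA binding to the DNA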
[13] = target: T2, Sentrin-specific protease 8; format: functional; remark: listed apart in the source
[14] = HGIII-sPLA2 enzyme inhibition potency – biochemical, QFRET, IC50, dose response (AID 743457);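 further: green fluorescence rise as the enzyme cleaves BODIPY PC-A2 in liposomes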
[15] = target: T7, Polyadenylate-binding protein 1 (Homo sapiens, UniProt P11940); assay: MLLE binding blockers, Cy5 peptide tracer – biochemical, fluorescence polarization, Cy5-PAM2 peptide, secondary, miRNA deadenylation inhibitor project, dose response (AID 602260); format: functional; settings: read-out: IC50_Mean
[16] = target: T7, Polyadenylate-binding protein 1; assay: MLLE domain peptide-binding blockers, IC50 – biochemical, fluorescence polarization, FITC-PAM2 peptide, dose response (AID 602259); format: functional; settings: read-out: IC50_Mean
[17] = HEK293 Cytotoxicity Assay Measured in Cell-Based System Using Plate Reader - 7071-01_Inhibitor_Dose_CherryPick_Activity_Set2.; format: functional
HEK293 = assay: viability loss in HEK293T cells – cell-based, ATP luminescence, cherry-pick samples, cytotoxicity control, dose response (AID 687005); format: functional; settings: Homo sapiens;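 further: cells exposed to compound for 48 hours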
HeLa = assay: viability loss in HeLa cells – cell-based, ATP luminescence, cherry-pick samples, cytotoxicity control, dose response (AID 687004); format: functional; settings: Homo sapiens
A549 = assay: viability loss in A549 cells – cell-based, plate reader, cherry-pick samples, cytotoxicity control, dose response (AID 687028); format: functional; settings: Homo sapiens
NS3 = NS3 (Hepatitis C virus, UniProt A3EZJ3); assay: NS3h DNA-binding inhibition IC50 – biochemical, fluorescence polarization, ChemBridge library, dose response (AID 743264)
[18] = T. cruzi growth inhibition in host cells, dose response, cell-based, plate reader, dry powder, set 2 (AID 652275); format: functional
[19] = inhibition of bursicon-driven LGR2 cAMP signaling – cell-based, HEK293, CRE-luciferase reporter, cherry pick, dose response (AID 743342); format: functional
[20] = A549 cell cytotoxicity, dose response, cytotoxicity control, plate reader, cherry-pick, antagonist series (AID 743412); format: functional, cell-based

T5 sequence (P61956 whole entry): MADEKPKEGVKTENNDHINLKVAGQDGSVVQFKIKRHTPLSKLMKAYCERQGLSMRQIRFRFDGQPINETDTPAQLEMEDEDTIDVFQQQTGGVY
T1 sequence (P63165 whole entry): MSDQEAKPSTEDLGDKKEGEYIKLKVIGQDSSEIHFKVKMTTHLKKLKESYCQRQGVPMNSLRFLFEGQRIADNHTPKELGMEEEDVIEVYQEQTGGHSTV
T3 sequence (P49327 whole entry): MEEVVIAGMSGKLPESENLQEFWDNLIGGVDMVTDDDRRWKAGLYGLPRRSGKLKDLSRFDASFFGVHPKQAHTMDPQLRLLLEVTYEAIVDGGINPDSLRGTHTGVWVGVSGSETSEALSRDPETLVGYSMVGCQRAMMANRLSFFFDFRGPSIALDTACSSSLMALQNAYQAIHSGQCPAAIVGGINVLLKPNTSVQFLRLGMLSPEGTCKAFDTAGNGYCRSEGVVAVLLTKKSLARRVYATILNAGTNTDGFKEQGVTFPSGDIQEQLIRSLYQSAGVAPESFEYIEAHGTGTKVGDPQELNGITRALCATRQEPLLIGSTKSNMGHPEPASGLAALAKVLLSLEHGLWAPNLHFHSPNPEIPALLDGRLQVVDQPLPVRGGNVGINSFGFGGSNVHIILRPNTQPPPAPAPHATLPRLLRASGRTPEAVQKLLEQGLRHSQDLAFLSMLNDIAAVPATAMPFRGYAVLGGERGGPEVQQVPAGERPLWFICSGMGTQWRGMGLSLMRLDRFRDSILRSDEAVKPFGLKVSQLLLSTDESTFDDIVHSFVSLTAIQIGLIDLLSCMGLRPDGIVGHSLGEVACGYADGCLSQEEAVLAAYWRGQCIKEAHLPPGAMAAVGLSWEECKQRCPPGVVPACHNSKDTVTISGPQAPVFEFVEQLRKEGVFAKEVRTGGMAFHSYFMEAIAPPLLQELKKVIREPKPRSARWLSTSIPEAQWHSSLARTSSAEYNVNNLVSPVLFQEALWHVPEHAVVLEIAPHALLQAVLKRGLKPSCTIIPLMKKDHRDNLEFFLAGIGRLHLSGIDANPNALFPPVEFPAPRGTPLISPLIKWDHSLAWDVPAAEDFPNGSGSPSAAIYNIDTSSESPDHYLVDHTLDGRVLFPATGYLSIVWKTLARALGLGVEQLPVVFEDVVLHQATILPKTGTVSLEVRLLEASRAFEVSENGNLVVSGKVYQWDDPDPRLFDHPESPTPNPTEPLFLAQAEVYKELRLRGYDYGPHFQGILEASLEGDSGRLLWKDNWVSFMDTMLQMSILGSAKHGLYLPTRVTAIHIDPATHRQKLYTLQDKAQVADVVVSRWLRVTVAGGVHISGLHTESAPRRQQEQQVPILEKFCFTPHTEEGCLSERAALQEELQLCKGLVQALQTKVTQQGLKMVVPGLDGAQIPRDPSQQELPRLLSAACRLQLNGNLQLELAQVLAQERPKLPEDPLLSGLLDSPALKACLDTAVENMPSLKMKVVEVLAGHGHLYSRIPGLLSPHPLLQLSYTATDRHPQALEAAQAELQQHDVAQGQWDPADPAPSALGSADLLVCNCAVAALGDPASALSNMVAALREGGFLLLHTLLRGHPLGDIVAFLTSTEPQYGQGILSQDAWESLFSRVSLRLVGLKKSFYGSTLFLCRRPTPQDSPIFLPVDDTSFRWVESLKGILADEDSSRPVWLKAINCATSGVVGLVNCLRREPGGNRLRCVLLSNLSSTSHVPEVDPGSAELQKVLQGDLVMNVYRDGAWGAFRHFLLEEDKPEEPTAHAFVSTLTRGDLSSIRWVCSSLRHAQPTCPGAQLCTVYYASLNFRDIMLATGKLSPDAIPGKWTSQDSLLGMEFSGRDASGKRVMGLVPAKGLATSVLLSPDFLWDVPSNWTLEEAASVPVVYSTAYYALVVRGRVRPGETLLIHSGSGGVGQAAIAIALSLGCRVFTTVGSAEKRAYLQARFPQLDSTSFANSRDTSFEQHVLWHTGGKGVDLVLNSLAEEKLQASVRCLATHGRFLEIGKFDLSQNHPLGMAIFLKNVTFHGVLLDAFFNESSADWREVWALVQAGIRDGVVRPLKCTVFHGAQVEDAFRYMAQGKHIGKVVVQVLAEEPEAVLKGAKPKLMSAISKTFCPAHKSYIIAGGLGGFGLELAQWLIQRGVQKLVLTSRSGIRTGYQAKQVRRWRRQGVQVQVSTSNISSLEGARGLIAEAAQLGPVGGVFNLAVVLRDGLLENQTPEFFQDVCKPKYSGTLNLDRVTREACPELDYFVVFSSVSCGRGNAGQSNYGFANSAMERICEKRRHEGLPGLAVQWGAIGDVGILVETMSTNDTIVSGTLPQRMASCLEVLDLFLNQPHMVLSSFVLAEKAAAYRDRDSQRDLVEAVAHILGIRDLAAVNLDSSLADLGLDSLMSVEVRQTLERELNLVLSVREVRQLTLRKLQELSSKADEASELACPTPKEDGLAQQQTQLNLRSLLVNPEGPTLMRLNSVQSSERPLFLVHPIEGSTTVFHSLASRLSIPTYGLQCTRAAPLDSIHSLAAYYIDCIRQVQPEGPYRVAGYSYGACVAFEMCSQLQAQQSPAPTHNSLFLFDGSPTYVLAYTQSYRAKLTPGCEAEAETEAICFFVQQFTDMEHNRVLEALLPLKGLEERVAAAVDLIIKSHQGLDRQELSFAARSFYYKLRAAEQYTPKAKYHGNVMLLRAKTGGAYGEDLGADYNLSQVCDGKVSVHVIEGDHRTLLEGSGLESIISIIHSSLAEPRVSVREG
T7 sequence (P11940 whole entry, the tested form may be a part): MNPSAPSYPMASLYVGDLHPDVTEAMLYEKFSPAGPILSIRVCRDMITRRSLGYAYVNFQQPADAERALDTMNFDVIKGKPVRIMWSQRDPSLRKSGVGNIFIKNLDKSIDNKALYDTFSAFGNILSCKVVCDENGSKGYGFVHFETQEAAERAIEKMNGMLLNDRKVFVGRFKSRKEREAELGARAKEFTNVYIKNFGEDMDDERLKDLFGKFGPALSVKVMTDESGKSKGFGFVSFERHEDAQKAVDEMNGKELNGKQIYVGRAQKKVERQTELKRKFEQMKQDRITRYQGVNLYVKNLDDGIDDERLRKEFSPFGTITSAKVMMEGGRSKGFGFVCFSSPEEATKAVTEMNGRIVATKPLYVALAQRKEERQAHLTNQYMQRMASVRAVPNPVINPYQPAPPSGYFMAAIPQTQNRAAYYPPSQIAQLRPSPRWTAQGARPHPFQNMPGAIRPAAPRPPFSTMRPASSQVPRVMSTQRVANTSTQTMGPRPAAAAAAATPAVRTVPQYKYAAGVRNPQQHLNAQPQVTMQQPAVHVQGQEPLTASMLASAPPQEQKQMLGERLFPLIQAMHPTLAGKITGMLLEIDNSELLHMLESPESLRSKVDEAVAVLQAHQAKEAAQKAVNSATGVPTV
Sequence of NS3 (A3EZJ3 whole entry): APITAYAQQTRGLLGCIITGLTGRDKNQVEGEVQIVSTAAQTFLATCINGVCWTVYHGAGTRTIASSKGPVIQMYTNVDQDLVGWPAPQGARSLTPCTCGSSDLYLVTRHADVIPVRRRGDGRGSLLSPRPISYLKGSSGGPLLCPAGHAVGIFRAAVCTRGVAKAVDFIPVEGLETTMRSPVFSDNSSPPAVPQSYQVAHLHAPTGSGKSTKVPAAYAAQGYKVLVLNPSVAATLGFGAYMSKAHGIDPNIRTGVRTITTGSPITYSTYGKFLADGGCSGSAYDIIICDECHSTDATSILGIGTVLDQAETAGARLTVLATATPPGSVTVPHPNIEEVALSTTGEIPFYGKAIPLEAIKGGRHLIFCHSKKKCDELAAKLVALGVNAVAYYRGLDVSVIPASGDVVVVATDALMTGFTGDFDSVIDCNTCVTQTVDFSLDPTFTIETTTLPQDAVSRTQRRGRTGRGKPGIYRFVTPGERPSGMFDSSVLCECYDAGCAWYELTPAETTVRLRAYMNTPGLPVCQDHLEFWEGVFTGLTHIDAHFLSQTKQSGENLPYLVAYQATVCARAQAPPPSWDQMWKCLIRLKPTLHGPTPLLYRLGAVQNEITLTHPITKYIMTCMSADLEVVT
Sequence of Genome polyprotein (P29990 2492-3391 limits assumed): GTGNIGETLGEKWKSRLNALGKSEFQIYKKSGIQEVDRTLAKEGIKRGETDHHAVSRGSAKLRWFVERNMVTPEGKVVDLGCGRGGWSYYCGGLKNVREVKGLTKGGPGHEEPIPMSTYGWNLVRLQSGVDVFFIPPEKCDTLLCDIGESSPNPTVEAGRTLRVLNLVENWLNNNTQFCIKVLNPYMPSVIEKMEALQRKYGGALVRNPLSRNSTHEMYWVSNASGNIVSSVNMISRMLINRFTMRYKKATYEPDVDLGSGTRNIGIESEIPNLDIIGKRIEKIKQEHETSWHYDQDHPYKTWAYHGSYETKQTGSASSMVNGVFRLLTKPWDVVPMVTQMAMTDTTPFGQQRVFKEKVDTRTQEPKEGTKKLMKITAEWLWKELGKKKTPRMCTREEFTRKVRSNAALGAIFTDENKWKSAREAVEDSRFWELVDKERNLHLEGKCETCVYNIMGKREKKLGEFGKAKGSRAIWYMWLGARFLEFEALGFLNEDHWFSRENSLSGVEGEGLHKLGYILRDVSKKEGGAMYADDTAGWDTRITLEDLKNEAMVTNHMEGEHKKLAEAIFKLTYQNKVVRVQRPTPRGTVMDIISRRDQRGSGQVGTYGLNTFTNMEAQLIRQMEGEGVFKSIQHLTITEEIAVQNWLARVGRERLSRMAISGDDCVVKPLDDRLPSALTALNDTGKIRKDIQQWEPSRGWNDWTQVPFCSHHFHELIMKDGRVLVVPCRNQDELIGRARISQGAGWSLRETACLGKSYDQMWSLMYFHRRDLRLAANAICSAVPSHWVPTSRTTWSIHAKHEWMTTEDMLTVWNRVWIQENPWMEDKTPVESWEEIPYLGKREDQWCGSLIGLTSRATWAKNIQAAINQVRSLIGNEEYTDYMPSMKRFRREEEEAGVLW

For `CCOc1ccc(S(=O)(=O)Nc2ccc(F)cc2)c(C)c1C`, the IC50 [1] was > 69.5 µM (inactive) and the IC50 [2] was > 7.72 µM (active).

With `Cc1ccccc1C1=C/C(=C(\SS/C(C(=O)c2ccc(OCC(=O)O)c(Cl)c2Cl)=C2\C=C(c3ccccc3C)SS2)C(=O)c2ccc(OCC(=O)O)c(Cl)c2Cl)SS1` the IC50 [3] was 50.2 µM (inactive), the IC50 [4] was 9.29 µM (active) and the IC50 [5] was 2.48 µM (active). The IC50 (Fatty acid synthase [6]) was 8.12 µM (active), the IC50 (Nonstructural protein 1) was 16.1 µM (active) and the IC50 (Genome polyprotein) was 9.25 µM (active). For the same compound, the IC50 [7] was 61.1 µM (active), the IC50 [8] was 1.51 µM (active) and the AC50 [9] was 6.35 µM (active). For the same compound, the IC50 [10] was 2.65 µM (active), the IC50 [11] was 22.7 µM (inactive) and the IC50 (Fatty acid synthase [12]) was 6.62 µM (active). The AC50 (ORF 73) was 63.2 µM (active) and the IC50 [13] was 56.9 µM (active).

In the case of `Cc1ccc(NC(=S)N/N=C2/CCCCc3ccccc32)cc1`, the IC50 [14] is reported as > 122 µM (inactive), the IC50 [15] is reported as > 66 µM (inactive) and the IC50 [16] is reported as > 66 µM (inactive).

For `O=C(C[C@@H]1CC[C@H]2[C@@H](COC[C@H](O)CN2Cc2ccc(Oc3ccccc3)cc2)O1)Nc1nccs1`, the AC50 [17] was 7.07 µM (active), the AC50 (HEK293) was 7.07 µM (active) and the AC50 (HeLa) was 43.9 µM (active).

With `C[C@H]1CCCCO[C@H](CN(C)C(=O)Nc2ccc(C(F)(F)F)cc2)[C@@H](C)CN([C@@H](C)CO)C(=O)c2cc(NC(=O)C3CCCCC3)ccc2O1` the AC50 (A549) was 20.8 µM (active).

For `Cc1ccc(N2C(=O)NC(=O)/C(=C/c3ccc(-c4cccc(C(=O)O)c4)o3)C2=O)cc1`, the IC50 (NS3) was 14.8 µM (inactive).

In the case of `CN(C)CC#Cc1cccc(-c2nc(C(=O)N[C@@H]3CCN(Cc4ccccc4)C3)cc3c2[C@@H](CCO)N([S+]([O-])C(C)(C)C)C3)c1` (some centres not stated), the AC50 [18] is reported as 0.0256 µM (active).

For `C[C@H]1CCCCO[C@@H](CN(C)C(=O)Nc2ccc3c(c2)OCO3)[C@@H](C)CN([C@@H](C)CO)C(=O)c2cc(NC(=O)NC3CCCCC3)ccc2O1`, the AC50 [19] was 16.9 µM (active) and the AC50 [20] was 35.3 µM (active).
